Test results taken from US9358228B2, “Therapeutic combinations of netupitant and palonosetron” (Helsinn Healthcare SA, priority 2011, dated 2016).

How the values were obtained:
[1] = test system: SNL and Sham rats; test: Rotarod motor performance; type: in vivo, rat; settings: FIG. 3, 0.03, 0.3 and 3 mg/kg
Text: The rotarod was also used to assess potential effects on motor performance of Netupitant and Palonosetron. Acceleration of the rotarod was set to increase from 0 to 20 revolutions per minute over the period of one minute. Due to initial, non-linear acceleration, rats were placed on the rotarod locked at a speed of 8 revolutions per minute. The rotarod was then set to accelerate and the latency to fall from the rotarod was timed from this point.

[2] = test system: spinal dorsal horn neurones in SNL rats; test: Electrophysiology: electrically-evoked dorsal horn neural responses; type: in vivo, rat; settings: for AB-Fiber Response, Number of Action Potentials / AD-Fiber Response, Number of Action Potentials / C-Fiber Response, Number of Action Potentials / Input Response, Number of Action Potentials / Post Discharge Response, Number of Action Potentials / Wind-up Response, Number of Action Potentials: SNL rats, mean ± S.E.
Description: Electrophysiology experiments were conducted on post-operative days 14-17 in anaesthetised rats.
We recorded the evoked responses of dorsal horn lamina V-VI neurones to stimulation of the peripheral receptive field with: • a train of 16 electrical pulses at 3×C-fibre threshold • mechanical von Frey filaments of increasing force—vf 2 g, 8 g, 26 g and 60 g applied to the centre of the receptive field for 10 seconds • heat—40, 45 and 48° C. applied to the centre of the receptive field by a constant water jet for 10 seconds
Following 3 stable baseline responses, 0.03 mg/kg Palonosetron and 0.10 mg/kg Netupitant were administered into the scruff of the neck by subcutaneous injection. Drug effects were followed for two hours with tests carried out at 10, 30, 50, 70, 90 and 110 minutes post injection.
Input represents the post-synaptic C-fibre-evoked dorsal horn neuronal response following the first of the 16 electrical stimuli in the electrical train. It gives a measure of resting pre-synaptic activity (taken as total neuronal responsiveness upstream of the neurone under study, therefore including afferent excitability, activity at terminals and interneurones) and transmitter release in the absence of potentiation. The baseline ‘input’ response given numerically and graphically in this and other studies, was calculated as the number of C-fibre-evoked action potentials produced by the first stimulus (i.e. initial baseline response) multiplied by the total number of stimuli. Aβ-, Aδ-, and C-fibre responses denote the number of action potentials respectively generated in the spinal cord as a consequence of Aβ-, Aδ-, and C-fibre activity following electrical stimulation of their peripheral receptive field. Our Spike 2 Data Capturing software separates out which incoming action potentials are carried by which fibre according to their latency to arrive in the spinal cord following generation (given the different conduction velocities of the fibres). Thus, those arriving within 20 ms of peripheral stimulation are attributed to Aβ-fibres, Aδ-fibres=20-90 ms, and C-fibre-evoked responses were taken as those recorded 90-300 ms after electrical stimulation. Neuronal responses that trail behind between 300-800 ms post-stimulus are quantified as post-discharge, and represent spinal cord hyperexcitability that results as a consequence of repetitive stimulation of the neurone. Activity-dependent hyperexcitability can additionally be measured as wind-up. This value is calculated as the difference between the total number of action potentials at C-fibre latency produced by the train of 16 electrical stimuli, and ‘input’ as defined and calculated above. Therefore, if the first electrical stimulus elicited 15 C-fibre-evoked action potentials, and the total number of C-fibre-evoked action potentials recorded after 16 stimuli was 350, then wind up=350−([…])=200. If each post-synaptic response was independent of previous activity, then in the example above, the cumulative number of action potentials evoked by C-fibres after the 16 electrical stimuli should theoretically be […]. However, temporal summation of action potentials, and post-synaptic hyperexcitability amplify responses, so wind-up is a measure of the additional action potentials recorded above the predicted baseline level.

Cl.O=C1c2cccc3c2[C@H](CCC3)CN1[C@@H]1CN2CCC1CC2 [Palo, (3aS)-2-[(S)-1-Azabicyclo[2.2.2]oct-3-yl]-2,3,3a,4,5,6-hexahydro-1-oxo-1Hberiz[de]isoquinoline]
motor performance, total time spent on a rotarod [1]: did not impair motor performance
AB-Fiber Response, Number of Action Potentials ([2]; Palo 0.03 mg/kg s.c.): 141 ± 22
AD-Fiber Response, Number of Action Potentials ([2]; Palo 0.03 mg/kg s.c.): 192 ± 51
C-Fiber Response, Number of Action Potentials ([2]; Palo 0.03 mg/kg s.c.): 518 ± 103
Input Response, Number of Action Potentials ([2]; Palo 0.03 mg/kg s.c.): 461 ± 86
Post Discharge Response, Number of Action Potentials ([2]; Palo 0.03 mg/kg s.c.): 417 ± 127
Wind-up Response, Number of Action Potentials ([2]; Palo 0.03 mg/kg s.c.): 559 ± 192
effect on electrophysiological measures of pain control, agent alone [2]: zero or minimal effect

Cc1ccccc1-c1cc(N2CCN(C)CC2)ncc1N(C)C(=O)C(C)(C)c1cc(C(F)(F)F)cc(C(F)(F)F)c1 [Netu, 2-[3,5-bis(trifluoromethyl)phenyl]-N,2-dimethyl-N-[4-(2-methylphenyl)-6-(4-methylpiperazin-1-yl)pyridin-3-yl]propanamide]
AB-Fiber Response, Number of Action Potentials ([2]; Netu 0.1 mg/kg s.c.): 135 ± 10
AD-Fiber Response, Number of Action Potentials ([2]; Netu 0.1 mg/kg s.c.): 103 ± 13
C-Fiber Response, Number of Action Potentials ([2]; Netu 0.1 mg/kg s.c.): 292 ± 45
Input Response, Number of Action Potentials ([2]; Netu 0.1 mg/kg s.c.): 293 ± 46
Post Discharge Response, Number of Action Potentials ([2]; Netu 0.1 mg/kg s.c.): 195 ± 29
Wind-up Response, Number of Action Potentials ([2]; Netu 0.1 mg/kg s.c.): 270 ± 38
effect on electrophysiological measures of pain control, agent alone [2]: independent effect
